Among the data in patent US20250100998A1, “PARP7 INHIBITORS” (Gilead Sciences, Inc., priority 2023, published 2025) are EC50 values, retold here.

The test system of this experiment is STAT1 (phosphorylated at Tyr701) in NCI-H1373 cells. As to the kind of experiment: Phospho-STAT1 (Tyr701) LANCE Ultra TR-FRET detection assay. It counts as cell-based. The settings on record: Homo sapiens, NCI-H1373, 48 h, induction of pSTAT1 in NCI-H1373 cells, 48 hours incubation; normalized to 10 uM positive control and DMSO; 4-parameter fit; read-out: NH1373 pSTAT1 EC50. As to the method:
Phospho-STAT1 (Tyr701 LANCE Ultra TR-FRET Detection Assay
LANCE Ultra phospho-STAT1 (Tyr701) kits are designed for the detection of phosphorylated STAT1 in cell lysates using a simple, homogeneous LANCE Ultra sandwich assay (Cat. #TRF4028M). This assay is intended for assessing compound induction of endogenous levels of cellular STAT1 (phosphorylated at Tyr701) in NCI-H1373 cells. The NCI-H1373 cells are cultured in RPMI 1640 media containing 10% heat inactivated FBS, GlutaMAX, 1% Penicillin-Streptomycin. An Echo acoustic liquid handler is used to transfer 60 nanoliters of compound dilutions using the Echo Qualified, 384-well polypropylene microplate clear flat bottom source plates into a Greiner (#781080) cell culture microplate. NCI-H1373 cells are seeded into these compound-spotted culture plates at 30,000 cells/well in a 60 uL volume in growth media. The plates are incubated in a 5% CO2 humidified incubator at 37° C. for 48 hours. […] Briefly, […] of supplemented lysis buffer is added to each well and allowed to shake for 1 hour at 400 rpm. Next, 5 ul of remixed antibody solutions (vol/vol) prepared in detection buffer are added to each well and allowed to incubate at room temperature overnight. After spinning the plate down at 300 rpm for 1 min, the plate is read on an EnVision plate reader set up for Eu3+ Cryptate and fluorescence emission is measured at two different wavelengths (665 nm and 620 nm). The HTRF ratio is then calculated ([…]) for each well to determine the amount of pSTAT1 in the cell lysate, and the data is then normalized to 10 uM (S)-5-((1-(3-oxo-3-(4-(5-(trifluoromethyl)pyrimidin-2-yl)piperazin-1-yl)propoxy)propan-2-yl)amino)-4-(trifluoromethyl)pyridazin-3(2H)-one positive and DMSO negative controls. The values were then plotted as a function of compound concentration and a 4-parameter fit was applied to derive the EC50 values.
(In TR-FRET formats the signal depends on donor and acceptor labels being close together.)
A word on the EC50: it is the concentration giving half of the maximal effect. Turning to `O=c1[nH]ncc(N[C@H]2CCC[C@@H](Cn3cc(F)c4cc(-c5ncc(C(F)(F)F)cn5)c(F)c(F)c4c3=O)C2)c1C(F)(F)F` [Example 33, 4,7,8-trifluoro-2-(((1R,3S)-3-((6-oxo-5-(trifluoromethyl)-1,6-dihydropyridazin-4-yl)amino)cyclohexyl)methyl)-6-(5-(trifluoromethyl)pyrimidin-2-yl)isoquinolin-1(2H)-one], the EC50 was 1.51 nM.

Turning to `O=c1[nH]ncc(N[C@H]2CCC[C@@H](Cn3cc(F)c4cc(-c5nc6ccccn6n5)c(F)cc4c3=O)C2)c1C(F)(F)F` [Example 32, 6-([1,2,4]triazolo[1,5-a]pyridin-2-yl)-4,7-difluoro-2-(((1R,3S)-3-((6-oxo-5-(trifluoromethyl)-1,6-dihydropyridazin-4-yl)amino)cyclohexyl)methyl)isoquinolin-1(2H)-one], the EC50 came to 1.53 nM.

With `O=c1[nH]ncc(N[C@H]2CCC[C@@H](Cn3cc(F)c4cc(-c5ncc(OCCO)cn5)c(F)c(F)c4c3=O)C2)c1C(F)(F)F` [Example 36, 4,7,8-trifluoro-6-(5-(2-hydroxyethoxy)pyrimidin-2-yl)-2-(((1R,3S)-3-((6-oxo-5-(trifluoromethyl)-1,6-dihydropyridazin-4-yl)amino)cyclohexyl)methyl)isoquinolin-1(2H)-one], the EC50 was 4.21 nM.

Take `O=c1[nH]ncc(N[C@H]2CCC[C@@H](Cn3ccc4cc(-c5nc6ccc(F)cn6n5)c(F)c(F)c4c3=O)C2)c1C(F)(F)F` [Example 17, 7,8-difluoro-6-(6-fluoro-[1,2,4]triazolo[1,5-a]pyridin-2-yl)-2-(((1R,3S)-3-((6-oxo-5-(trifluoromethyl)-1,6-dihydropyridazin-4-yl)amino)cyclohexyl)methyl)isoquinolin-1(2H)-one]: the EC50 is 1.16 nM.

Turning to `O=c1[nH]ncc(N[C@H]2CCC[C@@H](Cn3ccc4cc(-c5ncc(OCCO)cn5)c(F)c(F)c4c3=O)C2)c1C(F)(F)F` [Example 47, 7,8-difluoro-6-(5-(2-hydroxyethoxy)pyrimidin-2-yl)-2-(((1R,3S)-3-((6-oxo-5-(trifluoromethyl)-1,6-dihydropyridazin-4-yl)amino)cyclohexyl)methyl)isoquinolin-1(2H)-one], the EC50 is 4.86 nM.

In the case of `CC(C)(O)c1cnc(-c2cc3ccn(C[C@@H]4CCC[C@H](Oc5cn[nH]c(=O)c5C(F)(F)F)C4)c(=O)c3cc2F)nc1` [Example 57, 7-fluoro-6-(5-(2-hydroxypropan-2-yl)pyrimidin-2-yl)-2-(((1R,3S)-3-((6-oxo-5-(trifluoromethyl)-1,6-dihydropyridazin-4-yl)oxy)cyclohexyl)methyl)isoquinolin-1(2H)-one], the EC50 came to 1.82 nM.

As to `CC(O)(c1cnc(-c2cc3ccn(C[C@@H]4CCC[C@H](Nc5cn[nH]c(=O)c5C(F)(F)F)C4)c(=O)c3c(F)c2F)nc1)C(F)F` (stereo partly drawn) [Example 28, 6-(5-(1,1-difluoro-2-hydroxypropan-2-yl)pyrimidin-2-yl)-7,8-difluoro-2-(((1R,3S)-3-((6-oxo-5-(trifluoromethyl)-1,6-dihydropyridazin-4-yl)amino)cyclohexyl)methyl)isoquinolin-1(2H)-one], the EC50 came out at 5.84 nM.

For the molecule `CC(C)(O)c1cnc(-c2cc3c(F)cn(C[C@@H]4CCC[C@H](Nc5cn[nH]c(=O)c5C(F)(F)F)C4)c(=O)c3c(F)c2F)nc1` [Example 37, 4,7,8-trifluoro-6-(5-(2-hydroxypropan-2-yl)pyrimidin-2-yl)-2-(((1R,3S)-3-((6-oxo-5-(trifluoromethyl)-1,6-dihydropyridazin-4-yl)amino)cyclohexyl)methyl)isoquinolin-1(2H)-one], the EC50 stood at 2.48 nM.

Take `CS(=O)(=O)c1cnc(-c2cc3c(F)cn(C[C@@H]4CCC[C@H](Nc5cn[nH]c(=O)c5C(F)(F)F)C4)c(=O)c3c(F)c2F)nc1` [Example 41]: the 50% effective concentration (EC50) came to 3.25 nM.

For `CC(C)(O)c1cnc(-c2cc3c(F)cn(C[C@@H]4CCC[C@H](Nc5cn[nH]c(=O)c5C(F)(F)F)C4)c(=O)c3cc2F)nc1` [Example 39], the EC50 was found to be 4.2 nM.

Turning to `CC(F)(F)c1cnc(-c2cc3c(F)cn(C[C@@H]4CCC[C@H](Nc5cn[nH]c(=O)c5C(F)(F)F)C4)c(=O)c3cc2F)nc1` [Example 42], the EC50 stood at 2.45 nM.

On to `O=C1c2cc(F)c(-c3ncc(C(F)(F)F)cn3)cc2CN1C[C@@H]1CCC[C@H](Nc2cn[nH]c(=O)c2C(F)(F)F)C1` [Example 74, 6-fluoro-2-(((1R,3S)-3-((6-oxo-5-(trifluoromethyl)-1,6-dihydropyridazin-4-yl)amino)cyclohexyl)methyl)-5-(5-(trifluoromethyl)pyrimidin-2-yl)isoindolin-1-one], for which the EC50 was 9.03 nM.

Turning to `Cc1nc(-c2cc3ccn(C[C@@H]4CCC[C@H](Nc5cn[nH]c(=O)c5C(F)(F)F)C4)c(=O)c3cc2F)ncc1C(F)(F)F` [Example 6, 7-fluoro-6-(4-methyl-5-(trifluoromethyl)pyrimidin-2-yl)-2-(((1R,3S)-3-((6-oxo-5-(trifluoromethyl)-1,6-dihydropyridazin-4-yl)amino)cyclohexyl)methyl)isoquinolin-1(2H)-one], the EC50 was found to be 5.13 nM.

For `O=c1[nH]ncc(N[C@H]2CCC[C@@H](Cn3cc(F)c4cc(-c5ncc(OC(F)(F)F)cn5)c(F)cc4c3=O)C2)c1C(F)(F)F` [Example 23, 4,7-difluoro-2-(((1R,3S)-3-((6-oxo-5-(trifluoromethyl)-1,6-dihydropyridazin-4-yl)amino)cyclohexyl)methyl)-6-(5-(trifluoromethoxy)pyrimidin-2-yl)isoquinolin-1(2H)-one], the EC50 stood at 9.13 nM.

On to `N#Cc1cnc(-c2cc3ccn(C[C@@H]4CCC[C@H](Nc5cn[nH]c(=O)c5C(F)(F)F)C4)c(=O)c3cc2F)nc1` [Example 2, 2-(7-fluoro-1-oxo-2-(((1R,3S)-3-((6-oxo-5-(trifluoromethyl)-1,6-dihydropyridazin-4-yl)amino)cyclohexyl)methyl)-1,2-dihydroisoquinolin-6-yl)pyrimidine-5-carbonitrile], for which the EC50 worked out at 11.8 nM.

Turning to `CS(=N)(=O)c1cnc(-c2cc3ccn(C[C@@H]4CCC[C@H](Nc5cn[nH]c(=O)c5C(F)(F)F)C4)c(=O)c3c(F)c2F)nc1` (stereo partly drawn) [Example 24, 7,8-difluoro-6-(5-(methylsulfonimidoyl)pyrimidin-2-yl)-2-(((1R,3S)-3-((6-oxo-5-(trifluoromethyl)-1,6-dihydropyridazin-4-yl)amino)cyclohexyl)methyl)isoquinolin-1(2H)-one], the EC50 was 38.1 nM.

On to `CC(O)c1cnc(-c2cc3ccn(C[C@@H]4CCC[C@H](Nc5cn[nH]c(=O)c5C(F)(F)F)C4)c(=O)c3cc2F)nc1` (stereo partly drawn) [Example 10, 7-fluoro-6-(5-(1-hydroxyethyl)pyrimidin-2-yl)-2-(((1R,3S)-3-((6-oxo-5-(trifluoromethyl)-1,6-dihydropyridazin-4-yl)amino)cyclohexyl)methyl)isoquinolin-1(2H)-one], for which the EC50 came out at 6.86 nM.

Take `O=c1[nH]ncc(N[C@H]2CCC[C@@H](Cn3ccc4cc(-c5ncc(OCC(F)F)cn5)c(F)cc4c3=O)C2)c1C(F)(F)F` [Example 14, 6-(5-(2,2-difluoroethoxy)pyrimidin-2-yl)-7-fluoro-2-(((1R,3S)-3-((6-oxo-5-(trifluoromethyl)-1,6-dihydropyridazin-4-yl)amino)cyclohexyl)methyl)isoquinolin-1(2H)-one]: the EC50 was determined as 44.2 nM.

For `COc1cnc(-c2cc3c(F)cn(C[C@@H]4CCC[C@H](Oc5cn[nH]c(=O)c5C(F)(F)F)C4)c(=O)c3c(F)c2F)nc1` [Example 53, 4,7,8-trifluoro-6-(5-methoxypyrimidin-2-yl)-2-(((1R,3S)-3-((6-oxo-5-(trifluoromethyl)-1,6-dihydropyridazin-4-yl)oxy)cyclohexyl)methyl)isoquinolin-1(2H)-one], the EC50 is 2.09 nM.

`O=c1[nH]ncc(N[C@H]2CCO[C@@H](Cn3ccc4cc(-c5nc6ccccn6n5)c(F)cc4c3=O)C2)c1C(F)(F)F` [Example 64, 7-fluoro-2-[[(2R,4S)-4-[[6-oxo-5-(trifluoromethyl)-1H-pyridazin-4-yl]amino]tetrahydropyran-2-yl]methyl]-6-([1,2,4]triazolo[1,5-a]pyridin-2-yl)isoquinolin-1-one]: the 50% effective concentration (EC50) came out at 36.1 nM.

For `O=c1[nH]ncc(N[C@H]2CCC[C@@H](Cn3cc(Cl)c4cc(-c5nc6ccccn6n5)c(F)cc4c3=O)C2)c1C(F)(F)F` [Example 59, 6-([1,2,4]triazolo[1,5-a]pyridin-2-yl)-4-chloro-7-fluoro-2-(((1R,3S)-3-((6-oxo-5-(trifluoromethyl)-1,6-dihydropyridazin-4-yl)amino)cyclohexyl)methyl)isoquinolin-1(2H)-one], the EC50 turned out to be 2.02 nM.
